Measured values as given in patent US20200405699A1, “TREATING SICKLE CELL DISEASE WITH A PYRUVATE KINASE R ACTIVATING COMPOUND” (FORMA Therapeutics, Inc., priority 2018, published 2020).

Assays:
PKR-R510Q = PKR-R510Q (Homo sapiens, UniProt P30613, R510Q); assay: Luminescence Assay (Kinase Glo Plus), PKR R510Q; assay type: biochemical; conditions: read-out: AC50 (PKRR510Q)
Experimental: (§1) For each tested compound, the ability to activate PKR was determined using the following Luminescence Assay. The effect of phosphorylation of adenosine-5′-diphosphate (ADP) by PKR is determined by the Kinase Glo Plus Assay (Promega) in the presence or absence of FBP (D-fructose-1,6-diphosphate; BOC Sciences, CAS: 81028-91-3) as follows. Unless otherwise indicated, all reagents are purchased from Sigma-Aldrich. All reagents are prepared in buffer containing 50 mM Tris-HCl, 100 mM KCl, 5 mM MgCl2, and 0.01% Triton X100, 0.03% BSA, and 1 mM DTT. Enzyme and PEP (phosphoenolpyruvate) are added at 2× to all wells of an assay-ready plate containing serial dilutions of test compounds or DMSO vehicle. Final enzyme concentrations for PKR(wt), PKR(R510Q), and PKR(G332S) are 0.8 nM, 0.8 nM, and 10 nM respectively. Final PEP concentration is 100 μM. The Enzyme/PEP mixture is incubated with compounds for 30 minutes at RT before the assay is initiated with the addition of 2×ADP and KinaseGloPlus. Final concentration of ADP is 100 μM. […] For assays containing FBP, that reagent is added at 30 μM upon reaction initiation. Reactions are allowed to progress for 45 minutes at RT until luminescence is recorded by the BMG PHERAstar FS Multilabel Reader. The compound is tested in triplicate at concentrations ranging from 42.5 μM to 2.2 nM in 0.83% DMSO. AC50 measurements were obtained by the standard four parameter fit algorithm of ActivityBase XE Runner (max, min, slope and AC50). The AC50 value for a compound is the concentration (μM) at which the activity along the four parameter logistic curve fit is halfway between minimum and maximum activity.
(§2) As set forth in Tables 2 and 3 below and in FIG. 1, AC50 values are defined as follows: ≤0.1 μM (+++); >0.1 μM and ≤1.0 μM (++); >1.0 μM and ≤40 μM (+); >40 μM (0).

PKR(G332S) = PKR(G332S) (Homo sapiens, UniProt P30613, G332S); assay: Luminescence Assay (Kinase Glo Plus), PKR G332S; assay type: biochemical; conditions: read-out: AC50 (PKRG332S)
Experimental: as §1, §2

Sequence of PKR(G332S) (P30613 whole entry G332S): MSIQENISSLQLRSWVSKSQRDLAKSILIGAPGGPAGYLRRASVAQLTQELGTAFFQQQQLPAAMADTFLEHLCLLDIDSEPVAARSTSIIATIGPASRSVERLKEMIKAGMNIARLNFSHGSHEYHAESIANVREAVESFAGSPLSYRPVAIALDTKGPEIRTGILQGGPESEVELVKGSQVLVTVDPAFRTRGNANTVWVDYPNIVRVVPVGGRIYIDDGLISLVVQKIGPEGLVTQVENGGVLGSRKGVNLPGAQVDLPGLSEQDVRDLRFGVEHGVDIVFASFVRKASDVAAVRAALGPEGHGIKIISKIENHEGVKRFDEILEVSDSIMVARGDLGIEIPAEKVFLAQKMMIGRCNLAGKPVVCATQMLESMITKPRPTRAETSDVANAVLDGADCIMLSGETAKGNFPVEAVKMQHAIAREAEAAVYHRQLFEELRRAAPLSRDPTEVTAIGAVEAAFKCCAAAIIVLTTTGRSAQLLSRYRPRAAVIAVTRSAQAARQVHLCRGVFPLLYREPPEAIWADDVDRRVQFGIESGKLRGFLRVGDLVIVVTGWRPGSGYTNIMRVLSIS
Sequence of PKR-R510Q (P30613 whole entry R510Q): as the sequence (P30613 whole entry G332S) above, with S332G, R510Q counted along it

AC50 (PKR-R510Q) [µM] | AC50 (PKR(G332S)) [µM] | Compound
1 to 40 | 0.1 to 1 | O=C([C@H](O)c1cccnc1)N1CC2=C(C1)CN(S(=O)(=O)c1cnc3c(c1)OCCO3)C2 [Compound 6]
> 40 | > 40 | O=C(c1cn[nH]c1-c1ccccc1)N1CC2=C(C1)CN(S(=O)(=O)c1ccc3c(c1)OCCO3)C2 [Compound 8]
